These results are taken from ChEMBL document CHEMBL1144623, “Sesterterpene sulfates as isocitrate lyase inhibitors from tropical sponge Hippospongia sp” (Bioorg Med Chem Lett, 2007).

For assay [1], the system named is Pyricularia grisea. Briefly: Growth inhibition of Magnaporthe grisea Guy 11 in presence of glucose after 6 days. Particulars: Guy 11, 144 h. Format: functional.
A short description of assay [2]: Inhibition of Magnaporthe grisea Guy 11 malate synthase. The arrangement: species or system Pyricularia grisea.
Assay [3] concerns Pyricularia grisea. The experiment in a line: Reduction of appressorium formation in wild type Magnaporthe grisea Guy 11 after 14 hrs. Format: functional, organism-based.
Assay [4] has as its target Isocitrate lyase (Magnaporthe oryzae (strain 70-15 / FGSC 8958) (Rice blast fungus)(Pyricularia oryzae), UniProt P0CT06). Briefly: Inhibition of Magnaporthe grisea Guy 11 isocitrate lyase. The arrangement: species or system Pyricularia grisea.
Assay [5] relates to Pyricularia grisea. The experiment in a line: Growth inhibition of Magnaporthe grisea Guy 11 in presence of sodium acetate after 6 days. Format: functional. Particulars: Guy 11, 144 h.

Structures are written as SMILES. A value given as a limit tells only on which side of the number the result lay.

Sequence of Isocitrate lyase (P0CT06 whole entry): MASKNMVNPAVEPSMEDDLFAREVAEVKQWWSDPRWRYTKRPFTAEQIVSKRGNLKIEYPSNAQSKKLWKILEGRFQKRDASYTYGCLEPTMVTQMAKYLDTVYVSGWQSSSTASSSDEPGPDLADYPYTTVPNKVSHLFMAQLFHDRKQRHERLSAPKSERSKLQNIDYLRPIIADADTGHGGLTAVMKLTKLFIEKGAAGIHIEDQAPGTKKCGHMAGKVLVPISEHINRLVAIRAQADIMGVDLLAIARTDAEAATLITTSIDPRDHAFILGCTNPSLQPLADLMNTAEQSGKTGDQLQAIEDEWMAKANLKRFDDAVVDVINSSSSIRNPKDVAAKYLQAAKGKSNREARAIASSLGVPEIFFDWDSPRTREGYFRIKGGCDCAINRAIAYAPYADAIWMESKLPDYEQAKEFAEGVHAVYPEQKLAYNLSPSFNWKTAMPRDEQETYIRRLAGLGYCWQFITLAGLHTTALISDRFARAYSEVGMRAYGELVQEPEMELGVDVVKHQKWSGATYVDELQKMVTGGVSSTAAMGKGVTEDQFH

`C=C1CCC[C@@H]2[C@@](C)(CCC(CCCc3ccoc3)COS(=O)(=O)O)[C@H](C)CC[C@]12C` (some centres undefined) [HALISULFATE 5]: the MIC (in general, the lowest concentration found to suppress growth) is 853 µM in assay [1] and 107 µM in assay [5]. For the same compound, the IC50 – broadly, the concentration that gives 50% inhibition – in assay [2] stood at 1150 µM; in assay [4] it was 67.4 µM. For the same compound, the Activity result in assay [3] is “Dose-dependent effect”.

In the case of `O=C(O)CC[N+](=O)[O-]`, the MIC in assay [1] is more than 3360 µM; in assay [5] it was 2940 µM. The results for the IC50 in assay [2] and in assay [4] were 1570 µM and 92.4 µM, respectively.

In the case of `CC1=CC[C@H]2C(C)(C)CCC[C@]2(C)[C@H]1C[C@@H](O)[C@H](C)CCC/C(C)=C/Cc1cc(O)ccc1O` [HYDROHALISULFATE 1], the values for the MIC in assay [1] and in assay [5] were 843 µM and 105 µM, respectively. Besides, the IC50 in assay [2] turned out to be 274 µM; in assay [4] it was 15 µM. Further, in assay [3], the Activity entry is “Dose-dependent effect”.

For `CC1=CC[C@H]2C(C)(C)CCC[C@]2(C)[C@H]1C[C@@H](OS(=O)(=O)O)[C@H](C)CCC/C(C)=C/Cc1cc(O)ccc1O` [HALISULFATE 1], the MIC in assay [1] is 701 µM; in assay [5], 87.7 µM. Moreover, the IC50 in assay [2] was 227 µM; in assay [4], 12.6 µM. The Activity result in assay [3] was “Dose-dependent effect”.
